{"source": "patent US20260102472A1", "about": "“SEMAGLUTIDE IN MEDICAL THERAPY” (Novo Nordisk A/S, priority 2023, published 2026)", "test_system": "human subjects with obesity-related heart failure with preserved ejection fraction", "assay": "Randomised, double-blind, placebo-controlled clinical trial of semaglutide in obesity-related HFpEF (Example 1)", "assay_type": "in vivo", "details": "for Time to first HF event from randomisation leading to either hospitalisation or an urgent visit, Hazard ratio: Semaglutide 2.4 mg/placebo; for Observed KCCQ-CSS mean change from baseline: 2.4 mg once weekly subcutaneously", "source_text": "The Kansas City Cardiomyopathy Questionnaire (KCCQ) is a disease-specific health status instrument composed of 23 items that quantify the domains of physical limitation, symptoms, self-efficacy, social limitation, and health-related quality of life limitation from heart failure (available via cvoutcomes.org). The questions of the KCCQ are as published in the appendix of Green et al., JACC 2000; 35 (5): 1245-55:\nThe Kansas City Cardiomyopathy Questionnaire clinical summary score (KCCQ-CSS) is used for interpretation of the KCCQ and scores range from 0 to 100 where higher scores indicate better function. KCCQ-CSS is calculated as the mean of the available summary scores Physical Limitation Score and Total Symptom Score from the KCCQ. […] “Total Symptom Score” is calculated as the mean of the available summary scores Symptom Frequency Score and Symptom Burden Score. “Symptom Frequency Score” is calculated, if answer to at least two of Questions 3, 5, 7 and 9 are not missing, as 100*(mean of S3, S5, S7 and S9 answered), where S3=[(Question 3)−1]/4, S5=[(Question 5)−1]/6, S7=[(Question 7)−1]/6, and S9=[(Question 9)−1]/4; answers to Question 3 are scored as follows: Every morning=1, 3 or more times a week but not every day=2, 1-2 times a week=3, Less than once a week=4, Never over the past 2 weeks=5; answers to Questions 5 and 7 are scored as follows: All of the time=1, Several times a day=2, At least once a day=3, 3 or more times a week but not every day=4, 1-2 times a week=5, Less than once a week=6, or Never over the past 2 weeks=7; and answers to Question 9 are scored as follows: Every night=1, 3 or more times a week but not every day=2, 1-2 times a week=3, Less than once a week=4, or Never over the past 2 weeks=5. “Symptom Burden Score” is calculated, if answer to at least one of Questions 4, 6 and 8 is not missing, as 100*[(mean of Questions 4, 6 and 8 answered)−1]/4 where answers are scored as follows: Extremely bothersome=1, Quite a bit bothersome=2, Moderately bothersome=3, Slightly bothersome=4, Not at all bothersome=5, or I've had no swelling/fatigue/shortness of breath=5. The term “mean of questions answered” as used herein refers to that for a scale with n in questions where the subject must answer m to score the scale, but the subject answers only n-i, where n-i>=m, then the mean of those questions is calculated as (sum of answers to those n-i questions)/(n-i).\nThe six minute walk test (6MWT) is a determination of the distance a subject is able to walk over a period of six minutes where the subject traverses, at its own pace and resting as needed, back and forth along a marked walkway of 20 meters with the goal of walking as far as possible without running. The distance obtained from 6MWT is referred to as the six minute walk distance (6MWD). The 6MWT is a direct and timed measure of walking ability, which is technically simple and reproducible.\nHeart failure exists in different degrees of severity. The most commonly used classification system of heart failure is the New York Heart Association Functional Classification (also referred to as “NYHA”). NYHA categorises subjects in one of four classes I-IV (Table A), based on their degree of limitation during physical activity, and optionally an additional subgroup A-D based on objective assessments, for further details see The Criteria Committee of the New York Heart Association. Nomenclature and Criteria for Diagnosis of Diseases of the Heart and Great Vessels. 9th ed. Boston, Mass: Little, Brown & Co; 1994:253-256.\nA randomised, double-blind, international multicentre, placebo-controlled clinical trial with semaglutide was carried out with 529 human subjects with obesity-related heart failure with preserved ejection fraction. Key inclusion criteria were body mass index (BMI) of at least 30 kg/m^2, NYHA Class II-IV, and LVEF of at least 45% at time of screening for the clinical trial. […]", "key": {"[1]": {"details": "pair-wise comparisons vs. placebo, 2.4 mg"}, "[2]": {"details": "week 52, 2.4 mg once weekly vs. placebo"}, "[3]": {"details": "week 52, 2.4 mg once weekly vs. placebo, listed as semaglutide"}, "[4]": {"details": "week 52, 2.4 mg once weekly, ANCOVA estimate"}}}
{"substance": "N-epsilon26-[2-(2-{2-[2-(2-{2-[(S)-4-Carboxy-4-(17-carboxyheptadecanoyl-amino) butyrylamino]ethoxy}ethoxy) acetylamino]ethoxy}ethoxy) acetyl] [Aib8,Arg34] GLP-1-(7-37) [Semaglutide]", "values": [{"measurement": "Inflammation", "setting": "HFpEF and obesity, no data given", "value": "reduced inflammation"}, {"measurement": "Time to first HF event from randomisation leading to either hospitalisation or an urgent visit, Hazard ratio", "value": 0.08}, {"measurement": "Time to first HF event from randomisation leading to either hospitalisation or an urgent visit, Hazard ratio", "setting": "listed as semaglutide", "value": "risk of experiencing a heart failure event was less"}, {"measurement": "Patients improved or with no change in NYHA class compared with placebo", "setting": "baseline to 52 weeks", "value": "more patients treated with semaglutide improved or observed no change in NYHA class"}, {"measurement": "More wins on semaglutide as compared to placebo", "setting": "hierarchical composite endpoint", "value": 72, "unit": "%"}, {"measurement": "Hierarchical composite endpoint, Loss: All-cause death", "setting": "[1]", "value": 1.1, "unit": "%"}, {"measurement": "Hierarchical composite endpoint, Loss: Change in 6MWD ≥30 meters difference", "setting": "[1]", "value": 3.7, "unit": "%"}, {"measurement": "Hierarchical composite endpoint, Loss: Change in KCCQ-CSS ≥5 points difference", "setting": "[1]", "value": 7.0, "unit": "%"}, {"measurement": "Hierarchical composite endpoint, Loss: Change in KCCQ-CSS ≥10 points difference", "setting": "[1]", "value": 5.6, "unit": "%"}, {"measurement": "Hierarchical composite endpoint, Loss: Change in KCCQ-CSS ≥15 points difference", "setting": "[1]", "value": 17.5, "unit": "%"}, {"measurement": "Hierarchical composite endpoint, Loss: Number of HF events", "setting": "[1]", "value": 0.0, "unit": "%"}, {"measurement": "Hierarchical composite endpoint, Loss: Time-to-first HF event", "setting": "[1]", "value": 0.0, "unit": "%"}, {"measurement": "Hierarchical composite endpoint, Loss: Total", "setting": "[1]", "value": 34.9, "unit": "%"}, {"measurement": "Hierarchical composite endpoint, Proportion of ties", "setting": "[1]", "value": "Proportion of ties: 5.1%."}, {"measurement": "Hierarchical composite endpoint, Wins: All-cause death", "setting": "[1]", "value": 1.5, "unit": "%"}, {"measurement": "Hierarchical composite endpoint, Wins: Change in 6MWD ≥30 meters difference", "setting": "[1]", "value": 6.3, "unit": "%"}, {"measurement": "Hierarchical composite endpoint, Wins: Change in KCCQ-CSS ≥5 points difference", "setting": "[1]", "value": 8.2, "unit": "%"}, {"measurement": "Hierarchical composite endpoint, Wins: Change in KCCQ-CSS ≥10 points difference", "setting": "[1]", "value": 7.2, "unit": "%"}, {"measurement": "Hierarchical composite endpoint, Wins: Change in KCCQ-CSS ≥15 points difference", "setting": "[1]", "value": 33.7, "unit": "%"}, {"measurement": "Hierarchical composite endpoint, Wins: Number of HF events", "setting": "[1]", "value": 3.3, "unit": "%"}, {"measurement": "Hierarchical composite endpoint, Wins: Time-to-first HF event", "setting": "[1]", "value": 0.0, "unit": "%"}, {"measurement": "Hierarchical composite endpoint, Wins: Total", "setting": "[1]", "value": 60.1, "unit": "%"}, {"measurement": "Observed body weight (%) mean change from baseline", "setting": "week 0, 2.4 mg once weekly", "value": 0, "unit": "%"}, {"measurement": "Observed six minutes walk distance mean change from baseline", "setting": "week 0, 2.4 mg once weekly", "value": 0, "unit": "meters"}, {"measurement": "Observed KCCQ-CSS mean change from baseline", "setting": "week 0", "value": 0}, {"measurement": "Observed body weight (%) mean change from baseline", "setting": "week 4, dose escalation to 2.4 mg once weekly", "value": "−2.1", "unit": "%"}, {"measurement": "Observed body weight (%) mean change from baseline", "setting": "week 8, dose escalation to 2.4 mg once weekly", "value": "−3.2", "unit": "%"}, {"measurement": "Observed body weight (%) mean change from baseline", "setting": "week 12, dose escalation to 2.4 mg once weekly", "value": "−5.0", "unit": "%"}, {"measurement": "Observed body weight (%) mean change from baseline", "setting": "week 16, dose escalation to 2.4 mg once weekly", "value": "−6.6", "unit": "%"}, {"measurement": "Observed body weight (%) mean change from baseline", "setting": "week 20, 2.4 mg once weekly", "value": "−7.8", "unit": "%"}, {"measurement": "Observed six minutes walk distance mean change from baseline", "setting": "week 20, 2.4 mg once weekly", "value": 14.3, "unit": "meters"}, {"measurement": "Observed KCCQ-CSS mean change from baseline", "setting": "week 20", "value": 11.0}, {"measurement": "Observed body weight (%) mean change from baseline", "setting": "week 28, 2.4 mg once weekly", "value": "−10.2", "unit": "%"}, {"measurement": "Observed body weight (%) mean change from baseline", "setting": "week 36, 2.4 mg once weekly", "value": "−12.1", "unit": "%"}, {"measurement": "Observed KCCQ-CSS mean change from baseline", "setting": "week 36", "value": 15.0}, {"measurement": "Observed body weight (%) mean change from baseline", "setting": "week 44, 2.4 mg once weekly", "value": "−12.9", "unit": "%"}, {"measurement": "NYHA class from baseline to week 52: Improvement", "setting": "week 52, 2.4 mg once weekly", "value": 36.4, "unit": "%"}, {"measurement": "NYHA class from baseline to week 52: No change", "setting": "week 52, 2.4 mg once weekly", "value": 61.7, "unit": "%"}, {"measurement": "NYHA class from baseline to week 52: Worsening", "setting": "week 52, 2.4 mg once weekly", "value": 2.0, "unit": "%"}, {"measurement": "Observed body weight (%) mean change from baseline", "setting": "week 52, 2.4 mg once weekly", "value": "−13.9", "unit": "%"}, {"measurement": "Observed proportion improving ≥5 points from baseline in KCCQ-CSS", "setting": "week 52, 2.4 mg once weekly", "value": 75, "unit": "%"}, {"measurement": "Observed proportion improving ≥10 points from baseline in KCCQ-CSS", "setting": "week 52, 2.4 mg once weekly", "value": 63, "unit": "%"}, {"measurement": "Observed six minutes walk distance mean change from baseline", "setting": "week 52, 2.4 mg once weekly", "value": 23.5, "unit": "meters"}, {"measurement": "Observed KCCQ-CSS mean change from baseline", "setting": "week 52", "value": 16.8}, {"measurement": "Body weight (%) change from baseline to week 52, Treatment difference vs. placebo", "setting": "[2]", "value": "−10.7", "unit": "%"}, {"measurement": "Improvement of ≥5 points in KCCQ-CSS, Treatment Odds ratio vs. placebo", "setting": "[2]", "value": 1.88}, {"measurement": "Improvement of ≥10 points in KCCQ-CSS, Treatment Odds ratio vs. placebo", "setting": "[2]", "value": 2.10}, {"measurement": "KCCQ-CSS change from baseline to week 52, Treatment difference vs. placebo", "setting": "[2]", "value": 7.8, "unit": "score"}, {"measurement": "Six minutes walk distance change from baseline to week 52, Treatment difference vs. placebo", "setting": "[2]", "value": 20.3, "unit": "meters"}, {"measurement": "Body weight (%) change from baseline to week 52, Treatment difference vs. placebo", "setting": "[3]", "value": "significantly larger body weight loss"}, {"measurement": "KCCQ-CSS change from baseline to week 52, Treatment difference vs. placebo", "setting": "[3]", "value": "significantly larger improvement in KCCQ-CSS"}, {"measurement": "Six minutes walk distance change from baseline to week 52, Treatment difference vs. placebo", "setting": "[3]", "value": "significantly larger improvement in six minutes walk distance"}, {"measurement": "Body weight (%) change from baseline to week 52, Estimate", "setting": "[4]", "value": "−13.3", "unit": "%"}, {"measurement": "KCCQ-CSS change from baseline to week 52, Estimate", "setting": "[4]", "value": 16.6, "unit": "score"}, {"measurement": "Six minutes walk distance change from baseline to week 52, Estimate", "setting": "[4]", "value": 21.5, "unit": "meters"}]}
